Test results as given in publication PMC12867150, “A fungi-derived cyclic peptide enhances Th9-mediated antitumor immunity by targeting ZAP70 and SREBP1” (The Journal of Clinical Investigation, 2025).
Several values for one entry are separate records, joined by “and”; a condition that tells them apart may be missing. Identical values can stand only once.

Legend:
phosphorylated ZAP70 = assay: Flow cytometry of phosphorylated ZAP70 in human Th9 cells (Figure 8F); type: cell-based; conditions: result in words
Method: (§1) For Th9 polarization, cultures were supplemented with IL-4 (10 ng/mL, PeproTech, catalog AF-200-04), TGF-β (1 ng/mL), and neutralizing anti–IFN-γ monoclonal antibody (10 μg/mL, clone B27, BioXcell, catalog BE0245). After 3 days of initial culture, cells were either collected for downstream assays or continued in extended culture with refreshed cytokines to maintain lineage commitment without antibodies. Th9 cells were collected at days 4, 5, and 6 for subsequent in vitro assays. For adoptive transfer studies, day 4–cultured Th9 cells were washed and prepared for intravenous injection.
(§2) Details regarding staining panels (human and mouse), reagents (including clones and catalog numbers), acquisition settings, compensation/controls, and analysis procedures are provided in Supplemental Methods.
(§3) MH9A4, Biolegend, Cat. No. 507605, PE/Cy7, clone MH9A4, Biolegend, Cat. No. […]
(§4) clone Mab11, Biolegend, Cat. No. 502908), Perforin (APC, clone dG9, Biolegend, Cat.
(§5) Flow cytometric acquisition was performed using a BD Fortessa or Cytek Aurora cytometer. Data were analyzed with FlowJo software (v10.8.1 or newer). Fluorescence compensation, isotype-matched controls, and fluorescence-minus-one (FMO) controls were applied as appropriate for multicolor panel validation.
(§6) Cells were washed twice with PBS and lysed in 1 × lysis buffer (NCM, Cat. No. […]

TNF-α in human Th9 cells = assay: Flow cytometry of TNF-α in human Th9 cells (Figure 8G); type: cell-based
Method: as §1, §2, §3, §4, §5, §6

Substance: anteiso-C15 Leu7 surfactin [EpA]
- ZAP70 phosphorylation, human Th9 (phosphorylated ZAP70): increased phosphorylation of ZAP70
- TNF-α production in human CD4⁺ T cells (flow cytometric analysis) (TNF-α in human Th9 cells; Figure 8G, Th9-polarizing conditions, individual replicates, one per column (n = 4)): 321000 and 314000 and 322000 and 302000
- TNF-α expression, human Th9 (TNF-α in human Th9 cells; result in words): higher TNF-α expression
